This note sets out measurements from patent US12157746B2, “Tetrahydro-1H-pyrazino[2,1-a]isoindolylquinoline compounds for the treatment of autoimmune disease” (F. HOFFMANN-LA ROCHE AG, priority 2018, dated 2024).

The structures appear in SMILES notation. A value given as a limit tells only on which side of the number the result lay.

This assay addresses T1, human TLR7 (Homo sapiens, UniProt Q9NYK1).
T1 sequence (Q9NYK1 27-1049): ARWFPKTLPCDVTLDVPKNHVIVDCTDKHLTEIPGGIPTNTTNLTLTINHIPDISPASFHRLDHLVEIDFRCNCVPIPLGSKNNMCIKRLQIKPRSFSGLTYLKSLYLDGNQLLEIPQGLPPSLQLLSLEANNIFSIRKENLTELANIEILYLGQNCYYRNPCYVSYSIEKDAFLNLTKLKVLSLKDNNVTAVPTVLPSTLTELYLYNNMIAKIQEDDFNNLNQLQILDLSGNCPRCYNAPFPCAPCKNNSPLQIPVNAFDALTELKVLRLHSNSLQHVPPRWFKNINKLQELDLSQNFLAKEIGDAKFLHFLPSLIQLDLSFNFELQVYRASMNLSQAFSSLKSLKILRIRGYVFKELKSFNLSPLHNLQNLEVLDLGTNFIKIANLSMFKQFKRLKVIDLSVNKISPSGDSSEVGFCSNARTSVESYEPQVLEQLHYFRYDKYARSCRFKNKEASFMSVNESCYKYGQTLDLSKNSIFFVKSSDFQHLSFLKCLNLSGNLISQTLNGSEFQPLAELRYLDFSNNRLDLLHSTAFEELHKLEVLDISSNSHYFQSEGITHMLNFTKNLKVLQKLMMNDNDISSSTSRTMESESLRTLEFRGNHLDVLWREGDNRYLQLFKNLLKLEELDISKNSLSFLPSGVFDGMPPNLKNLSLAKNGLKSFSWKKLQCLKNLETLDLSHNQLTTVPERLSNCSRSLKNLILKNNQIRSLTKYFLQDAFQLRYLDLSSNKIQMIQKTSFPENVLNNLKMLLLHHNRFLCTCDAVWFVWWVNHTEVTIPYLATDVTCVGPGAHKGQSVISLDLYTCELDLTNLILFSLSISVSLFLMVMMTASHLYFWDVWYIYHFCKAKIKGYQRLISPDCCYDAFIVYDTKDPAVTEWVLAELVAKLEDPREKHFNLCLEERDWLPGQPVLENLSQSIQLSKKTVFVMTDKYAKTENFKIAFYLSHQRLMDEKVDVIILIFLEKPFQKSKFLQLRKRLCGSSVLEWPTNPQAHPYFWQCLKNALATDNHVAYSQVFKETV
Kind of assay: HEK293-Blue-hTLR-7 cells assay. To be noted: HEK293-Blue-hTLR7 cells, R848 stimulation, 20 hrs, SEAP reporter; read-out: HEK/hTLR7 IC50. The assay is classed as cell-based. The text has this: HEK293-Blue-hTLR-7 Cells Assay:
A stable HEK293-Blue-hTLR-7 cell line was purchased from InvivoGen (Cat. #: hkb-htlr7, San Diego, California, USA). These cells were originally designed for studying the stimulation of human TLR7 by monitoring the activation of NF-κB. A SEAP (secreted embryonic alkaline phosphatase) reporter gene was placed under the control of the IFN-β minimal promoter fused to five NF-κB and AP-1-binding sites. The SEAP was induced by activating NF-κB and AP-1 via stimulating HEK-Blue hTLR7 cells with TLR7 ligands. Therefore the reporter expression was declined by TLR7 antagonist under the stimulation of a ligand, such as R848 (Resiquimod), for incubation of 20 hrs. The cell culture supernatant SEAP reporter activity was determined using QUANTI-Blue™ kit (Cat. #: rep-qb1, Invivogen, San Diego, Ca. USA) at a wavelength of 640 nm, a detection medium that turns purple or blue in the presence of alkaline phosphatase.
HEK293-Blue-hTLR7 cells were incubated at a density of 250,000˜450,000 cells/mL in a volume of 170 μL in a 96-well plate in Dulbecco's Modified Eagle's medium (DMEM) containing 4.5 g/L glucose, 50 U/mL penicillin, […], […], 2 mM L-glutamine, 10% (v/v) heat-inactivated fetal bovine serum with addition of 20 μL test compound 1n a serial dilution in the presence of final DMSO at 1% and 10 μL of 20 uM R848 in above DMEM, perform incubation under 37° C. in a CO2 incubator for 20 hrs. Then 20 μL of the supernatant from each well was incubated with 180 μL Quanti-blue substrate solution at 37° C. for 2 hrs and the absorbance was read at 620-655 nm using a spectrophotometer. The signaling pathway that TLR7 activation leads to downstream NF-κB activation has been widely accepted, and therefore similar reporter assay was modified for evaluating TLR7 antagonist.

Consider `CO[C@@H]1CN(c2ccc3c(c2)CN2[C@H](C)CN(c4ccc(C#N)n5nccc45)C[C@H]32)CC[C@H]1N` [Example 104, 4-[(4R,10bS)-8-[(3R,4R)-4-amino-3-methoxy-1-piperidyl]-4-methyl-3,4,6,10b-tetrahydro-1H-pyrazino[2,1-a]isoindol-2-yl]pyrazolo[1,5-a]pyridine-7-carbonitrile], for which the IC50 worked out at 6.1 nM.
Consider `C[C@@H]1CN(c2ccc(C#N)c3ncccc23)C[C@@H]2c3ccc(N[C@@H]4CNC[C@@H]4F)cc3CN12` [Example 32, 5-[(4R,10bS)-8-[[(3R,4S)-4-fluoropyrrolidin-3-yl]amino]-4-methyl-3,4,6,10b-tetrahydro-1H-pyrazino[2,1-a]isoindol-2-yl]quinoline-8-carbonitrile], for which the IC50 turned out to be 3.5 nM.
The result for `C[C@@H]1CN(c2ccc(C#N)c3ncccc23)C[C@@H]2c3ccc(N4CCOC[C@H](N)C4)cc3CN12` [Example 54A, 5-[(4R,10bS)-8-[(6R)-6-amino-1,4-oxazepan-4-yl]-4-methyl-3,4,6,10b-tetrahydro-1H-pyrazino[2,1-a]isoindol-2-yl]quinoline-8-carbonitrile] reads 4.5 nM; that for `C[C@@H]1CN(c2ccc(C#N)n3nccc23)C[C@@H]2c3ccc(N4C[C@@H](N)[C@H](O)C4)cc3CN12` [Example 110, 4-[(4R,10bS)-8-[(3R,4R)-3-amino-4-hydroxy-pyrrolidin-1-yl]-4-methyl-3,4,6,10b-tetrahydro-1H-pyrazino[2,1-a]isoindol-2-yl]pyrazolo[1,5-a]pyridine-7-carbonitrile], 19 nM.
For `C[C@@H]1CN(c2ccc(C#N)n3ncc(F)c23)C[C@@H]2c3ccc(N4C[C@H](N)[C@@](C)(O)C4)cc3CN12` [Example 112, 4-[(4R,10bS)-8-[(3S,4S)-4-amino-3-hydroxy-3-methyl-pyrrolidin-1-yl]-4-methyl-3,4,6,10b-tetrahydro-1H-pyrazino[2,1-a]isoindol-2-yl]-3-fluoro-pyrazolo[1,5-a]pyridine-7-carbonitrile], the IC50 was found to be 11.4 nM.
With `C[C@@H]1CN(c2ccc(C#N)n3nccc23)C[C@@H]2c3ccc(N4C[C@H](N)[C@@H](O)C4)cc3CN12` [Example 111, 4-[(4R,10bS)-8-[(3S,4S)-3-amino-4-hydroxy-pyrrolidin-1-yl]-4-methyl-3,4,6,10b-tetrahydro-1H-pyrazino[2,1-a]isoindol-2-yl]pyrazolo[1,5-a]pyridine-7-carbonitrile], the IC50 came to 14 nM.
For `COC1CN(c2ccc3c(c2)CN2C3CN(c3ccc(C#N)c4ncccc34)C[C@H]2C)CC1N` (single isomer, unassigned) [Example 16B], the IC50 amounted to 4.5 nM.
Take `C[C@@H]1CN(c2ccc(C#N)c3ncccc23)C[C@@H]2c3ccc(N4CCNCC(C)(O)C4)cc3CN12` (stereo partly drawn) [Example 55, 5-[(4R,10S)-8-(6-hydroxy-6-methyl-1,4-diazepan-1-yl)-4-methyl-3,4,6,10b-tetrahydro-1H-pyrazino[2,1-a]isoindol-2-yl]quinoline-8-carbonitrile]: the IC50 turned out to be 6.5 nM.
Then `C[C@@H]1CN(c2ccc(C#N)c3nccnc23)C[C@@H]2c3ccc(N4CCNCC4)cc3CN12` [Example 7, 8-[(4R,10bS)-4-methyl-8-piperazin-1-yl-3,4,6,10b-tetrahydro-1H-pyrazino[2,1-a]isoindol-2-yl]quinoxaline-5-carbonitrile], with < 3.2 nM.
The result for `[2H]c1ccc2c(N3C[C@@H](C)N4Cc5cc(N6CC7CNCC(C6)O7)ccc5[C@H]4C3)ccc(C#N)c2n1` [Example 93, 5-[(4R,10bS)-4-methyl-8-(9-oxa-3,7-diazabicyclo[3.3.1]nonan-3-yl)-3,4,6,10b-tetrahydro-1H-pyrazino[2,1-a]isoindol-2-yl]-2-deuterio-quinoline-8-carbonitrile] reads 3.8 nM; that for `C[C@@H]1CN(c2ccc(C#N)c3ncccc23)C[C@@H]2c3ccc(N4CC5CNCC(C4)O5)cc3CN12` [Example 14, 5-[(4R,10bS)-4-methyl-8-(9-oxa-3,7-diazabicyclo[3.3.1]nonan-3-yl)-3,4,6,10b-tetrahydro-1H-pyrazino[2,1-a]isoindol-2-yl]quinoline-8-carbonitrile], 4.5 nM; that for `C[C@@H]1CN(c2ccc(C#N)c3ncccc23)C[C@@H]2c3ccc(N4CCNC[C@@H](O)C4)cc3CN12` [Example 53B, 5-[(4R,10bS)-8-[(6R)-6-hydroxy-1,4-diazepan-1-yl]-4-methyl-3,4,6,10b-tetrahydro-1H-pyrazino[2,1-a]isoindol-2-yl]quinoline-8-carbonitrile], 8.9 nM.
For the molecule `C[C@@H]1CN(c2ccc(C#N)c3ncccc23)C[C@@H]2c3ccc(N4CCOC5CNCC54)cc3CN12` (stereo partly drawn) [Example 52, 5-[(4R,10bS)-8-(3,4a,5,6,7,7a-hexahydro-2H-pyrrolo[3,4-b][1,4]oxazin-4-yl)-4-methyl-3,4,6,10b-tetrahydro-1H-pyrazino[2,1-a]isoindol-2-yl]quinoline-8-carbonitrile], the IC50 amounted to 8.5 nM.
Turning to `C[C@@H]1CN(c2ccc(C#N)n3nccc23)C[C@@H]2c3ccc(N4CC5CNCC(C4)O5)cc3CN12` [Example 107, 4-[(4R,10bS)-4-methyl-8-(9-oxa-3,7-diazabicyclo[3.3.1]nonan-3-yl)-3,4,6,10b-tetrahydro-1H-pyrazino[2,1-a]isoindol-2-yl]pyrazolo[1,5-a]pyridine-7-carbonitrile], the IC50 was determined as 14.5 nM.
Take `C[C@@H]1CN(c2ccc(C#N)c3ncccc23)C[C@@H]2c3ccc(N4C[C@H]5NCCO[C@@H]5C4)cc3CN12` [Example 44, 5-[(4R,10bS)-4-methyl-8-[(4aR,7aR)-3,4,4a,5,7,7a-hexahydro-2H-pyrrolo[3,4-b][1,4]oxazin-6-yl]-3,4,6,10b-tetrahydro-1H-pyrazino[2,1-a]isoindol-2-yl]quinoline-8-carbonitrile]: the IC50 is 19.1 nM.
As to `CN[C@@H]1CN(c2ccc3c(c2)CN2[C@H](C)CN(c4ccc(C#N)c5ncccc45)C[C@H]32)C[C@H]1O` [Example 43, 5-[(4R,10bS)-4-methyl-8-[(3R,4R)-3-hydroxy-4-(methylamino)pyrrolidin-1-yl]-3,4,6,10b-tetrahydro-1H-pyrazino[2,1-a]isoindol-2-yl]quinoline-8-carbonitrile], the IC50 was 4 nM.
The result for `C[C@@H]1CN(c2ccc(C#N)c3ncccc23)C[C@@H]2c3ccc(N4CCNC[C@@H]4CO)cc3CN12` [Example 10, 5-[(4R,10bS)-8-[(2R)-2-(hydroxymethyl)piperazin-1-yl]-4-methyl-3,4,6,10b-tetrahydro-1H-pyrazino[2,1-a]isoindol-2-yl]quinoline-8-carbonitrile] reads < 3.2 nM; that for `C[C@@H]1CN(c2ccc(C#N)c3ncccc23)C[C@@H]2c3ccc(N4CC(N)C4)cc3CN12` [Example 22, 5-[(4R,10bS)-8-(3-aminoazetidin-1-yl)-4-methyl-3,4,6,10b-tetrahydro-1H-pyrazino[2,1-a]isoindol-2-yl]quinoline-8-carbonitrile], < 3.2 nM; that for `[2H]c1ccc2c(N3C[C@@H](C)N4Cc5cc(N[C@H]6CNC[C@H]6F)ccc5[C@H]4C3)ccc(C#N)c2n1` [Example 91, 5-[(4R,10bS)-8-[[(3S,4R)-4-fluoropyrrolidin-3-yl]amino]-4-methyl-3,4,6,10b-tetrahydro-1H-pyrazino[2,1-a]isoindol-2-yl]-2-deuterio-quinoline-8-carbonitrile], 1.7 nM.
